Assay results: paper PMC3968004, “The Relevance of Testing the Efficacy of Anti-Angiogenesis Treatments on Cells Derived from Primary Tumors: A New Method for the Personalized Treatment of Renal Cell Carcinoma” (PLoS ONE, 2014)

Test system: ERK, AKT and S6K activity in M cells
Test: Immunoblotting of signaling pathways in M cells
Format: cell-based, human
Source text: The following antibodies were used for Western blotting: anti-phospho ERK 1,2 (Sigma St Louis, MO, Reference M8159)), anti-phospho Akt, anti-Akt and anti-phospho S6 Kinase (Cell Signaling, Cambridge, UK, respectively References 4051, 9272, 9234) and anti-TFE3 anti ERKs (Santa Cruz Biotechnology, Santa Cruz, CA references sc 5958 (TFE3) and sc 93 (ERK)).
The effects of the different drugs on proliferation are correlated with the activity of intracellular signaling pathways (ERK and PI3 kinase/AKT/mTOR/S6 kinase (S6K)) in TF cells. […] The effects of the different drugs on signaling pathways have been tested in CC and M cells. […] Everolimus inhibited S6K with reactivation of AKT.
Supplementary file pone.0089449.s001.tif: Figure S1 In vitro sensitivity of the CC and M cells to the different drugs used to treat the patients; specific impact on downstream signaling pathways. A) The activity of major signaling pathways (ERK, PI3K/AKT/mTOR/S6K) in response to the different treatments (sunitinib (Su), sorafenib (So) and everolimus (Ev)) was determined by analysis of the presence of the phosphorylated forms of the kinases (pERK, pAKT, pS6K) in TF cells following a short-term treatment (two hours) by immunoblotting. Tubulin is shown as a loading control. […]

CO[C@H]1C[C@@H]2CC[C@@H](C)[C@@](O)(O2)C(=O)C(=O)N2CCCC[C@H]2C(=O)O[C@H]([C@H](C)C[C@@H]2CC[C@@H](OCCO)[C@H](OC)C2)CC(=O)[C@H](C)/C=C(\C)[C@@H](O)[C@@H](OC)C(=O)[C@H](C)C[C@H](C)/C=C/C=C/C=C/1C [everolimus]
S6K activity: strong inhibition
